Where “and” joins values, the source holds several entries; their conditions need not be identical. Equal entries are not always repeated. ± gives the expanded uncertainty stated by the source.
Settings: Liquid; for speed of sound: Frequency=3 MHz, Single path-length method; for mass density: Vibrating tube method; for viscosity: Concentric cylinders viscometry

| Structure (SMILES) | speed of sound (288.15 K, 102 kPa) [m/s] | mass density (288.15 K, 102 kPa) [kg/m3] | viscosity (293.15 K, 102 kPa) [mPa·s] | speed of sound (293.15 K, 102 kPa) [m/s] | mass density (293.15 K, 102 kPa) [kg/m3] | speed of sound (298.15 K, 102 kPa) [m/s] | mass density (298.15 K, 102 kPa) [kg/m3] | viscosity (303.15 K, 102 kPa) [mPa·s] | speed of sound (303.15 K, 102 kPa) [m/s] | mass density (303.15 K, 102 kPa) [kg/m3] | viscosity (313.15 K, 102 kPa) [mPa·s] | speed of sound (313.15 K, 102 kPa) [m/s] | mass density (313.15 K, 102 kPa) | viscosity (323.15 K, 102 kPa) [mPa·s] | speed of sound (323.15 K, 102 kPa) [m/s] | mass density (323.15 K, 102 kPa) [kg/m3] | viscosity (333.15 K, 102 kPa) [mPa·s] | speed of sound (333.15 K, 102 kPa) [m/s] | mass density (333.15 K, 102 kPa) [kg/m3] | also measured |
| --- | --- | --- | --- | --- | --- | --- | --- | --- | --- | --- | --- | --- | --- | --- | --- | --- | --- | --- | --- | --- |
| CCCC1CCCCC1 [1-cyclohexylpropane] | 1328.6 ± 1.6 | 797.42 ± 0.71 | 0.981 ± 0.031 | 1307.7 ± 0.6 | 793.53 ± 0.71 | 1287.1 ± 0.6 | 789.63 ± 0.71 | 0.856 ± 0.031 | 1266.6 ± 0.6 | 785.72 ± 0.71 | 0.75 ± 0.031 | 1226.2 ± 0.6 | 777.88 ± 0.71 kg/m3 | 0.668 ± 0.03 | 1186.5 ± 0.6 | 770 ± 0.71 | 0.594 ± 0.03 | 1147.7 ± 0.6 | 762.09 ± 0.71 | speed of sound (293.15 K, 88 kPa): 1307.7 ± 0.6 m/s; speed of sound (303.15 K, 88 kPa): 1266.6 ± 0.6 m/s; speed of sound (313.15 K, 88 kPa): 1226.2 ± 0.6 m/s; speed of sound (323.15 K, 88 kPa): 1186.5 ± 0.6 m/s; speed of sound (333.15 K, 88 kPa): 1147.7 ± 0.6 m/s |
| CCCCCCCCCCC1CCCCC1 [decylcyclohexane] | 1425.2 ± 0.9 | 821.93 ± 0.71 | 5.34 ± 0.04 | 1406.4 ± 0.9 | 818.54 ± 0.71 | 1387.7 ± 0.9 | 815.16 ± 0.71 | 4.09 ± 0.04 | 1369.1 ± 0.9 | 811.78 ± 0.71 | 3.23 ± 0.03 | 1332.8 ± 0.9 | 805.02 ± 0.71 kg/m3 | 2.6 ± 0.03 | 1297.2 ± 0.9 | 798.26 ± 0.71 | 2.15 ± 0.03 | 1262.7 ± 0.9 | 791.49 ± 0.71 | – |
| CCCCCCCCCCCC [dodecane] | 1317.2 ± 0.7 | 752.35 ± 0.71 | 1.49 ± 0.03 | 1297.7 ± 0.7 | 748.72 ± 0.71 | 1278.2 ± 0.7 | 745.09 ± 0.71 | 1.27 ± 0.03 | 1259 ± 0.7 | 741.46 ± 0.71 | 1.08 ± 0.03 | 1221.1 ± 0.7 | 734.18 ± 0.71 kg/m3 and 734.19 ± 0.71 kg/m3 | 0.934 ± 0.031 | 1184 ± 0.7 | 726.88 ± 0.71 | 0.813 ± 0.031 | 1147.8 ± 0.7 | 719.53 ± 0.71 | – |
